# Reference: patent US12617783B2, “Heterocyclic GLP-1R agonists” (BIOMEA FUSION, INC., priority 2024, dated 2026)
# Biological target: T1, human GLP-1R (Homo sapiens, UniProt P43220)
# T1 construct: host or cells: HEK293
# Assay: GLP-1R cAMP assay (Example B1b, HTRF, 30 min at 37°)
# Format: cell-based
# Settings: cAMP accumulation in HEK293 expressing human GLP-1R, no BETP, 30 min at 37° (Method B1b), Table 1
# Procedure: Assay was carried out with HEK293 expressing human GLP-1R using HTRF assay, developed by Wuxi Apptec. The method is a competitive assay between native cAMP produced by the cells and exogenous cAMP labeled with a proprietary dye d2. The tracer binding is visualized by a mAb anti-cAMP labeled with Cryptate. The signal (i.e. energy transfer) is inversely proportional to the concentration of CAMP in either standard or experimental sample. Compounds were tested in the absence of BETP. Ten microliter of cell suspension in assay buffer (5 mM HEPES, 500 μM IBMX, 0.1% BSA) were added to each well (1,000 cells per well) in a low volume 384-well plate for the assay. Serially diluted compounds were added in 100 nL volume to duplicate wells, by Labcyte Echo. GLP-1 (7-37) was used as positive control. Assay plate was incubated for 30 minutes at 37°. Stock of cAMP Detection Solution was prepared by mixing 38 parts of cAMP lysis buffer, 1 part of cAMP-D2, 1 part of anti-cAMP cryptate reagent (Cisbio #62AM4PEJ). Ten microliter of the cAMP Detection Solution was added to each well, and the assay plate was incubated for 1 hour at room temperature in the dark. Plates were read on Envision plate reader. The data were analyzed by ScreenUltra in Dotmatics, with % activation expressed using following formula: (Signal ratio […]*10000−negative control)/(postive control−negative control)*100. Dose response curves were plotted and EC50 values calculated by non-linear regression using 4-parameter fit. The potency (EC50) values for cAMP accumulation in HEK293 cells are reported in the Table 1 below (for compounds ID 610-708).
# T1 sequence (P43220 24-463): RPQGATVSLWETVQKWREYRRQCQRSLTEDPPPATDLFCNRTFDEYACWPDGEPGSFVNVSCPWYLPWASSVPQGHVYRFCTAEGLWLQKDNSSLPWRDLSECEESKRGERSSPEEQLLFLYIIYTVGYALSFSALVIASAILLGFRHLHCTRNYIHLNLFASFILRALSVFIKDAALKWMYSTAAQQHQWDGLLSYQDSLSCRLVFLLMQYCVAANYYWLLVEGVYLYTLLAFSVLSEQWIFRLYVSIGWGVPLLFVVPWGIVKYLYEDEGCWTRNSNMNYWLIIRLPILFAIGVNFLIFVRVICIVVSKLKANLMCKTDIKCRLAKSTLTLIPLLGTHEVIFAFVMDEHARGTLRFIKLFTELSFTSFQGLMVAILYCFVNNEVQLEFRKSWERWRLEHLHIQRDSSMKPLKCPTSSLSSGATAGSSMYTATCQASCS
row,SMILES,EC50 [µM]
1,"Cc1cc(-n2nc3c(c2-n2ccn(-c4ccc5c(cnn5C)c4F)c2=O)[C@@H]2CC[C@H](C3)N2C(=O)c2c(F)c3cc(C4CCOC(C)(C)C4)ccc3n2[C@@]2(c3noc(=O)[nH]3)C[C@@H]2C)cc(C)c1F (stereo in doubt) [Compound 712, 3-[(1S,2S)-1-[5-[(4S)-2,2-dimethyltetrahydropyran-4-yl]-3-fluoro-2-[(1S,8R)-4-(4-fluoro-3,5-dimethyl-phenyl)-3-[3-(4-fluoro-1-methyl-indazol-5-yl)-2-oxo-imidazol-1-yl]-4,5,11-triazatricyclo[6.2.1.02,6]undeca-2,5-diene-11-carbonyl]indol-1-yl]-2-methyl-cyclopropyl]-4H-1,2,4-oxadiazol-5-one]",0.112
2,"Cc1cc(-n2nc3c(c2-n2ccn(-c4ccc5c(cnn5C)c4F)c2=O)[C@@H]2COC[C@H](C3)N2C(=O)c2cc3cc([C@H]4CCOC(C)(C)C4)cc(F)c3n2[C@@]2(c3noc(=O)[nH]3)C[C@@H]2C)cc(C)c1F [Compound 705, 3-((1S,2S)-1-(5-((S)-2,2-dimethyltetrahydro-2H-pyran-4-yl)-7-fluoro-2-((4R,8S)-3-(3-(4-fluoro-1-methyl-1H-indazol-5-yl)-2-oxo-2,3-dihydro-1H-imidazol-1-yl)-2-(4-fluoro-3,5-dimethylphenyl)-2,4,5,7,8,9-hexahydro-4,8-epiminooxocino [5,4-c]pyrazole-10-carbonyl)-1H-indol-1-yl)-2-methylcyclopropyl)-1,2,4-oxadiazol-5(4H)-one]",0.0024
3,"Cc1cc(-n2nc3c(c2-n2ccn(-c4ccc5c(cnn5C)c4F)c2=O)[C@@H]2CC[C@H](C3)N2C(=O)c2c(F)c3cc(C4CCOC(C)(C)C4)ccc3n2[C@@]2(c3noc(=O)[nH]3)C[C@@H]2C)cc(C)c1F (stereo in doubt) [Compound 713, 3-[(1S,2S)-1-[5-[(4R)-2,2-dimethyltetrahydropyran-4-yl]-3-fluoro-2-[(1S,8R)-4-(4-fluoro-3,5-dimethyl-phenyl)-3-[3-(4-fluoro-1-methyl-indazol-5-yl)-2-oxo-imidazol-1-yl]-4,5,11-triazatricyclo[6.2.1.02,6]undeca-2,5-diene-11-carbonyl]indol-1-yl]-2-methyl-cyclopropyl]-4H-1,2,4-oxadiazol-5-one]",0.004
4,"Cc1cc(-n2nc3c(c2-n2ccn(-c4ccc(N(C)C(=O)C5CC5)c(Cl)c4)c2=O)[C@@H]2CCC[C@H](C3)N2C(=O)c2cc3cc([C@H]4CCOC(C)(C)C4)ccc3n2[C@@]2(c3noc(=O)[nH]3)C[C@@H]2C)cc(C)c1F [Compound 612, N-(2-chloro-4-(3-((4S,8R)-10-(5-((S)-2,2-dimethyltetrahydro-2H-pyran-4-yl)-1-((1S,2S)-2-methyl-1-(5-oxo-4,5-dihydro-1,2,4-oxadiazol-3-yl)cyclopropyl)-1H-indole-2-carbonyl)-2-(4-fluoro-3,5-dimethylphenyl)-4,5,6,7,8,9-hexahydro-2H-4,8-epiminocycloocta [c]pyrazol-3-yl)-2-oxo-2,3-dihydro-1H-imidazol-1-yl)phenyl)-N-methylcyclopropanecarboxamide]",0.0019
5,"Cc1cc(-n2nc3c(c2-n2ccn(-c4ccc5c(cnn5C)c4F)c2=O)[C@@H]2CC[C@H](C3)N2C(=O)c2cc3cc(C4CCOC(C)(C)C4)cc(F)c3n2[C@@]2(c3noc(=O)[nH]3)C[C@@H]2C)cc(C)c1F (stereo partly drawn) [Compound 618, 3-[(1S,2S)-1-[5-(2,2-dimethyltetrahydropyran-4-yl)-7-fluoro-2-[(1S,8R)-4-(4-fluoro-3,5-dimethyl-phenyl)-3-[3-(4-fluoro-1-methyl-indazol-5-yl)-2-oxo-imidazol-1-yl]-4,5,11-triazatricyclo[6.2.1.02,6]undeca-2,5-diene-11-carbonyl]indol-1-yl]-2-methyl-cyclopropyl]-4H-1,2,4-oxadiazol-5-one]",0.0296
6,"Cc1cc(-n2nc3c(c2-n2ccn(-c4ccc5cnccc5c4F)c2=O)[C@@H]2CCC[C@H](C3)N2C(=O)c2cc3cc([C@H]4CCOC5(CC5)C4)ccc3n2[C@@]2(c3noc(=O)[nH]3)C[C@@H]2C)cc(C)c1F [Compound 614, 3-((1S,2S)-1-(2-((4S,8R)-2-(4-fluoro-3,5-dimethylphenyl)-3-(3-(5-fluoroisoquinolin-6-yl)-2-oxo-2,3-dihydro-1H-imidazol-1-yl)-4,5,6,7,8,9-hexahydro-2H-4,8-epiminocycloocta [c]pyrazole-10-carbonyl)-5-((S)-4-oxaspiro[2.5]octan-7-yl)-1H-indol-1-yl)-2-methylcyclopropyl)-1,2,4-oxadiazol-5 (4H)-one]",0.0006
7,"Cc1cc(-n2nc3c(c2-n2ccn(-c4ccc5c(c4)C4(CC4)C(=O)N5C)c2=O)[C@@H]2CCC[C@H](C3)N2C(=O)c2cc3cc([C@H]4CCOC(C)(C)C4)ccc3n2[C@@]2(c3noc(=O)[nH]3)C[C@@H]2C)cc(C)c1F [Compound 714, 3-((1S,2S)-1-(5-((S)-2,2-dimethyltetrahydro-2H-pyran-4-yl)-2-((4S,8R)-2-(4-fluoro-3,5-dimethylphenyl)-3-(3-(1′-methyl-2′-oxospiro[cyclopropane-1,3′-indolin]-5′-yl)-2-oxo-2,3-dihydro-1H-imidazol-1-yl)-4,5,6,7,8,9-hexahydro-2H-[4,8]epiminocycloocta [c]pyrazole-10-carbonyl)-1H-indol-1-yl)-2-methylcyclopropyl)-1,2,4-oxadiazol-5 (4H)-one]",0.002
8,"Cc1cc(-n2nc3c(c2-n2ccn(-c4ccc5c(cnn5C)c4F)c2=O)[C@@H]2CC[C@H](C3)N2C(=O)c2cc3cc([C@H]4CCOC(C)(C)C4)cc(F)c3n2[C@@]2(c3noc(=O)[nH]3)C[C@@H]2C)cc(C)c1F [Compound 711, 3-[(1S,2S)-1-[5-[(4S)-2,2-dimethyltetrahydropyran-4-yl]-7-fluoro-2-[(1S,8R)-4-(4-fluoro-3,5-dimethyl-phenyl)-3-[3-(4-fluoro-1-methyl-indazol-5-yl)-2-oxo-imidazol-1-yl]-4,5,11-triazatricyclo[6.2.1.02,6]undeca-2,5-diene-11-carbonyl]indol-1-yl]-2-methyl-cyclopropyl]-4H-1,2,4-oxadiazol-5-one]",0.006
9,"Cc1cc(-n2nc3c(c2-n2ccn(-c4ccc5c(cnn5C5CC5)c4F)c2=O)[C@@H]2COC[C@H](C3)N2C(=O)c2cc3cc([C@H]4CCOC(C)(C)C4)ccc3n2[C@@]2(c3noc(=O)[nH]3)C[C@@H]2C)cc(C)c1F [Compound 617, 3-((1S,2S)-1-(2-((4R,8S)-3-(3-(1-cyclopropyl-4-fluoro-1H-indazol-5-yl)-2-oxo-2,3-dihydro-1H-imidazol-1-yl)-2-(4-fluoro-3,5-dimethylphenyl)-2,4,5,7,8,9-hexahydro-4,8-epiminooxocino [5,4-c]pyrazole-10-carbonyl)-5-((S)-2,2-dimethyltetrahydro-2H-pyran-4-yl)-1H-indol-1-yl)-2-methylcyclopropyl)-1,2,4-oxadiazol-5 (4H)-one]",0.0025
10,"Cc1cc(-n2nc3c(c2-n2ccn(-c4ccc5c(cnn5C)c4F)c2=O)[C@@H]2CC[C@H](C3)N2C(=O)c2c(F)c3cc(C4CCOC(C)(C)C4)ccc3n2[C@@]2(c3noc(=O)[nH]3)C[C@@H]2C)cc(C)c1F (stereo partly drawn) [Compound 708, 3-[(1S,2S)-1-[5-(2,2-dimethyltetrahydropyran-4-yl)-3-fluoro-2-[(1S,8R)-4-(4-fluoro-3,5-dimethyl-phenyl)-3-[3-(4-fluoro-1-methyl-indazol-5-yl)-2-oxo-imidazol-1-yl]-4,5,11-triazatricyclo[6.2.1.02,6]undeca-2,5-diene-11-carbonyl]indol-1-yl]-2-methyl-cyclopropyl]-4H-1,2,4-oxadiazol-5-one]",0.0085
